Test results as given in patent US20150064221A1, “COMPOUNDS HAVING IMMUNOMUDULATOR ACTIVITY” (priority 2012, published 2015).

Legend:
[1] = system: systemic lupus erythematosus (SLE); experiment: NZB/NZW F1 model of systemic lupus erythematosus; type: in vivo, NZB/NZW F1 mice
Description: FIG. 19. Effects of VGX-1027 administration on survival rate (A), proteinuria (B) and serum anti-dsDNA antibodies (C) of NZB/NZW F1 mice treated for 20 weeks with either VGX-1027 or vehicle.
FIG. 20. Histopathological analysis (A) and relative phospho-STAT3 (B) levels in kidney sample of NZB/NZW F1 mice treated for 20 weeks with either VGX-1027 or vehicle.
To determine the effects of VGX-1027 on the development and progression of SLE, lupus-prone NZB/NZW F1 were treated daily with 5 mg/mouse VGX-1027 i.p. for 20 weeks, starting at 16 weeks of age. Control mice received an equal volume of vehicle. Control mice started to die at 20 weeks of age. By week 36, 62.5% of them were dead compared to the only 33.3% of treated mice (p=0.0487 by Log-rank test) (FIG. 19A). Improved survival was correlated with inhibition of renal disease. Proteinuria was assessed once a week. […] Eventually, all of the mice developed proteinuria but the delay in disease progression and prolonged survival of VGX-1027 treated animals remained evident (FIG. 19B).

[2] = system: PBMCs; experiment: Transcriptional profile analysis (microarray) of LPS-stimulated PBMCs; type: cell-based, human; parameters: mean/difference of means: scale not given here; details: for mean/difference of means: VGX-treated vs LPS stimulated group
Description: Transcriptional profile analysis: PBMCs from three individual healthy donors, obtained from the University of Pennsylvania School of Medicine, Immunology Clinical Core. Cells (5×10̂6) were treated with either LPS (5 μg/ml), LPS (5 μg/ml)+VGX-1027 (10 uM) or PBS for 48 hours and subsequently, RNA was extracted using the RNeasy kit (Qiagen) following manufacturer's instructions.
RNA was hybridized to the Human Gene 1.0 ST array (Affymetrix). Microarray data were analyzed using the web-based utility Expression Profiler (http://www.ebi.ac.uk/expressionprofiler/). Data normalization was achieved by performing logarithmic transformation of all intensities followed by gene mean-centering. Multiple array probes were collapsed by averaging the intensities. Principal component analysis (PCA) was conducted on all genes to assign the general variability in the data to a reduced set of variables. Gene expression differences were assessed by means of Student's t test, and genes with a p<0.01 were considered differentially expressed. Selected genes were subjected to K-means clustering, using Euclidean distance as correlation measurement, and gene ontology (GO) analysis was performed using the Database for Annotation, Visualization and Integrated Discovery (DAVID) tool. Hierarchical clustering of selected genes was performed using Euclidean distance measurements as similarity comparison.

O=C(O)CC1CC(c2ccccc2)=NO1 (stereo not drawn) [VGX-1027, 3-phenyl-4,5-dihydro-5-isoxazoleacetic acid]
serum anti-dsDNA autoantibodies ([1]; 36-weeks old, p<0.0001): significant lower levels
anti-dsDNA antibodies ([1]; at 26 weeks of age): Only slightly increased levels
mice dead ([1]; by week 36, 5 mg/mouse i.p. daily for 20 weeks): 33.3%
renal histopathology mean score ([1]; end-stage nephritis, p=0.01): 1.9±0.8
relative levels of renal p-STAT3 (ELISA) ([1]; p=0.0234): significant reduction
levels of proteinuria ([1]; throughout the experimental period, p=0.0265): significantly lower
genes in cluster strongly downregulated upon treatment ([2]; K-means clustering): 525
genes modulated relative to LPS ([2]; LPS 5 μg/ml + 10 uM, 48 hours): 895
mean/difference of means ([2]; gene 7912155, most down-regulated genes): 0.111
mean/difference of means ([2]; gene 7923965, most down-regulated genes): 0.439
mean/difference of means ([2]; gene 7945084, most down-regulated genes): 0.165
mean/difference of means ([2]; gene 7997245, most up-regulated genes): −0.0599
mean/difference of means ([2]; gene 8007069, most down-regulated genes): 0.074
mean/difference of means ([2]; gene 8017100, most down-regulated genes): 0.108
mean/difference of means ([2]; gene 8028281, most down-regulated genes): 0.0791
mean/difference of means ([2]; gene 8043441, most up-regulated genes): −0.406
mean/difference of means ([2]; gene 8077169, most down-regulated genes): 0.153
mean/difference of means ([2]; gene 8094946, most down-regulated genes): 0.07
mean/difference of means ([2]; gene 8102775, most down-regulated genes): 0.101
mean/difference of means ([2]; gene 8104068, most down-regulated genes): 0.118
mean/difference of means ([2]; gene 8134024, most down-regulated genes): 0.0796
mean/difference of means ([2]; gene 8135943, most down-regulated genes): 0.406
mean/difference of means ([2]; gene 8136446, most up-regulated genes): −0.146
mean/difference of means ([2]; gene 8140035, most down-regulated genes): 0.388
mean/difference of means ([2]; gene 8150101, most up-regulated genes): −0.237
mean/difference of means ([2]; gene 8153835, most down-regulated genes): 0.0829
mean/difference of means ([2]; gene 8160555, most down-regulated genes): 0.171
mean/difference of means ([2]; gene ADAM19, most up-regulated genes): −0.176
mean/difference of means ([2]; gene AIM2, most up-regulated genes): −0.221
mean/difference of means ([2]; gene ALKBH5, most down-regulated genes): 0.0698
mean/difference of means ([2]; gene APOBEC3G, most up-regulated genes): −0.239
mean/difference of means ([2]; gene ATXN10, most up-regulated genes): −0.131
mean/difference of means ([2]; gene BLNK, most up-regulated genes): −0.398
mean/difference of means ([2]; gene BOLA3, most up-regulated genes): −0.118
mean/difference of means ([2]; gene C1orf2, most down-regulated genes): 0.106
mean/difference of means ([2]; gene C11orf53, most down-regulated genes): 0.184
mean/difference of means ([2]; gene C20orf173, most down-regulated genes): 0.14
mean/difference of means ([2]; gene CABYR, most down-regulated genes): 0.135
mean/difference of means ([2]; gene CCKBR, most down-regulated genes): 0.0588
mean/difference of means ([2]; gene CCL8, most up-regulated genes): −1.08
mean/difference of means ([2]; gene CD22, most up-regulated genes): −0.453
mean/difference of means ([2]; gene CD38, most up-regulated genes): −0.468
mean/difference of means ([2]; gene CHML, most up-regulated genes): −0.24
mean/difference of means ([2]; gene CIZ1, most down-regulated genes): 0.0416
mean/difference of means ([2]; gene CLIC5, most up-regulated genes): −0.175
mean/difference of means ([2]; gene CLU, most up-regulated genes): −0.218
mean/difference of means ([2]; gene CPA3, most up-regulated genes): −0.669
mean/difference of means ([2]; gene CYTH1, most down-regulated genes): 0.0452
mean/difference of means ([2]; gene DNAH1, most up-regulated genes): −0.134
mean/difference of means ([2]; gene EDN2, most down-regulated genes): 0.0391
mean/difference of means ([2]; gene EGR4, most down-regulated genes): 0.129
mean/difference of means ([2]; gene EOMES, most up-regulated genes): −0.0887
mean/difference of means ([2]; gene ETNK2, most down-regulated genes): 0.278
mean/difference of means ([2]; gene FAM108C1, most down-regulated genes): 0.0544
mean/difference of means ([2]; gene FAS, most up-regulated genes): −0.12
mean/difference of means ([2]; gene FCRL1, most up-regulated genes): −0.301
mean/difference of means ([2]; gene FNBP1L, most down-regulated genes): 0.203
mean/difference of means ([2]; gene FUK, most down-regulated genes): 0.0866
mean/difference of means ([2]; gene GATAD1, most down-regulated genes): 0.0258
mean/difference of means ([2]; gene GEN1, most up-regulated genes): −0.368
mean/difference of means ([2]; gene GGTLC2, most down-regulated genes): 0.179
mean/difference of means ([2]; gene HAGH, most down-regulated genes): 0.0712
mean/difference of means ([2]; gene HISPPD2A, most down-regulated genes): 0.0217
mean/difference of means ([2]; gene HSPA12B, most down-regulated genes): 0.0281
mean/difference of means ([2]; gene KARS, most up-regulated genes): −0.126
mean/difference of means ([2]; gene KCTD10, most up-regulated genes): −0.0613
mean/difference of means ([2]; gene KLF3, most down-regulated genes): 0.115
mean/difference of means ([2]; gene KLF10, most up-regulated genes): −0.11
mean/difference of means ([2]; gene KLHDC4, most up-regulated genes): −0.0727
mean/difference of means ([2]; gene LARS2, most up-regulated genes): −0.176
mean/difference of means ([2]; gene LCP2, most up-regulated genes): −0.0536
mean/difference of means ([2]; gene LRRC8D, most down-regulated genes): 0.139
mean/difference of means ([2]; gene LYRM4, most up-regulated genes): −0.294
mean/difference of means ([2]; gene MAGOH, most up-regulated genes): −0.1
mean/difference of means ([2]; gene MOV10L1, most down-regulated genes): 0.0753
mean/difference of means ([2]; gene MRPL15, most up-regulated genes): −0.147
mean/difference of means ([2]; gene MRPS35, most up-regulated genes): −0.164
mean/difference of means ([2]; gene NDUFA4, most up-regulated genes): −0.0638
mean/difference of means ([2]; gene NLN, most up-regulated genes): −0.217
mean/difference of means ([2]; gene OAS3, most up-regulated genes): −0.134
mean/difference of means ([2]; gene OFCC1, most down-regulated genes): 0.0379
mean/difference of means ([2]; gene PAH, most down-regulated genes): 0.0906
mean/difference of means ([2]; gene PAK1IP1, most up-regulated genes): −0.271
mean/difference of means ([2]; gene PGDS, most up-regulated genes): −0.708
mean/difference of means ([2]; gene RGS1, most up-regulated genes): −0.294
mean/difference of means ([2]; gene RPE, most up-regulated genes): −0.116
mean/difference of means ([2]; gene SERPINI1, most down-regulated genes): 0.187
mean/difference of means ([2]; gene SH3PXD2A, most down-regulated genes): 0.0515
mean/difference of means ([2]; gene SLC38A2, most down-regulated genes): 0.0979
mean/difference of means ([2]; gene SNORA24, most up-regulated genes): −0.212
mean/difference of means ([2]; gene SNRNP70, most down-regulated genes): 0.0617
mean/difference of means ([2]; gene SNX6, most up-regulated genes): −0.0607
mean/difference of means ([2]; gene SPAG7, most up-regulated genes): −0.149
mean/difference of means ([2]; gene SRFBP1, most up-regulated genes): −0.124
mean/difference of means ([2]; gene TCL1A, most up-regulated genes): −0.442
mean/difference of means ([2]; gene TNFRSF17, most up-regulated genes): −0.295
mean/difference of means ([2]; gene TRABD, most down-regulated genes): 0.0439
mean/difference of means ([2]; gene TSN, most up-regulated genes): −0.105
mean/difference of means ([2]; gene TUSC3, most down-regulated genes): 0.0955
mean/difference of means ([2]; gene TXNRD1, most down-regulated genes): 0.117
mean/difference of means ([2]; gene UAP1L1, most down-regulated genes): 0.0398
mean/difference of means ([2]; gene VIPR1, most down-regulated genes): 0.123
mean/difference of means ([2]; gene WARS2, most up-regulated genes): −0.246
mean/difference of means ([2]; gene WDR70, most up-regulated genes): −0.0908
mean/difference of means ([2]; gene YPEL2, most down-regulated genes): 0.183
mean/difference of means ([2]; gene ZNF596, most up-regulated genes): −0.432
mean/difference of means ([2]; gene ZNF746, most down-regulated genes): 0.0386
mean/difference of means ([2]; gene hCG_2024410, most up-regulated genes): −0.102
